Patent US20060128721A1, “Novel formulations of opioid-based treatments of pain comprising substituted 1,4-di-piperidin-4-yl-piperazine derivatives” (priority 2003, published 2006)

Key:
[1] = molecular target: T1, cloned human h-NK1 receptors expressed in CHO cells (Homo sapiens, UniProt P25103); assay: Binding experiment for h-NK1 receptors ([3H]-Substance P displacement); details: read-out: h-NK1 pIC50 (converted)
T1 construct: expressed in transfected cells; host or cells: CHO cells
Method: (§1) The compounds according to the invention were investigated for interaction with various neurotransmitter receptors, ion channels and transporter binding sites using the radioligand binding technique. Membranes from tissue homogenates or from cells, expressing the receptor or transporter of interests, were incubated with a radioactively labelled substance ([^3H]- or [^125I] ligand) to label a particular receptor. […] Following incubation, labelled membranes were harvested and rinsed with excessive cold buffer to remove non-bound radioactivity by rapid filtration under suction. Membrane bound radioactivity was counted in a scintillation counter and results were expressed in counts per minute (cpm).
(§2) The compounds were dissolved in DMSO and tested at 10 concentrations ranging from 10^−10 to 10^−5 M.
(§3) The ability of the compounds according to the invention to displace [^3H]-Substance P from cloned human h-NK1 receptors expressed in CHO cells, to displace [^3H]-SR-48968 from cloned human h-NK2 receptors expressed in Sf9 cells, and to displace [^3H]-SR-142801 from cloned human h-NK3 receptors expressed in CHO cells was evaluated.

[2] = molecular target: T2, cloned human h-NK2 receptors expressed in Sf9 cells (Homo sapiens, UniProt P21452); assay: Binding experiment for h-NK2 receptors ([3H]-SR-48968 displacement); details: [3H]-SR-48968, Sf9 cells; read-out: h-NK2 pIC50 (converted)
T2 construct: expressed in transfected cells; host or cells: Sf9 cells
T2 sequence (P21452 1-398): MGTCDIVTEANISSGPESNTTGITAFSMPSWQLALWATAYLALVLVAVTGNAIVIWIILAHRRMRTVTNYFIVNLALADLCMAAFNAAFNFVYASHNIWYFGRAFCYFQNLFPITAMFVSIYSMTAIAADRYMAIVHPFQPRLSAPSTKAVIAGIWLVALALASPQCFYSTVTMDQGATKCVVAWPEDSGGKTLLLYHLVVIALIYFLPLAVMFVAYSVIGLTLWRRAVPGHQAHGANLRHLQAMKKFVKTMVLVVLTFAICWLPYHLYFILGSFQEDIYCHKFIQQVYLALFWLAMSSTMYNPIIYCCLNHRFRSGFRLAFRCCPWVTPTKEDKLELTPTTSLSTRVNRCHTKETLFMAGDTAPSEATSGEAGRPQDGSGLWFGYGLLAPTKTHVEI
Method: as §1, §2, §3

[3] = molecular target: T3, cloned human h-NK3 receptors expressed in CHO cells (Homo sapiens, UniProt P29371); assay: Binding experiment for h-NK3 receptors ([3H]-SR-142801 displacement); details: [3H]-SR-142801, CHO cells; read-out: h-NK3 pIC50 (converted)
T3 construct: expressed in transfected cells; host or cells: CHO cells
T3 sequence (P29371 1-465): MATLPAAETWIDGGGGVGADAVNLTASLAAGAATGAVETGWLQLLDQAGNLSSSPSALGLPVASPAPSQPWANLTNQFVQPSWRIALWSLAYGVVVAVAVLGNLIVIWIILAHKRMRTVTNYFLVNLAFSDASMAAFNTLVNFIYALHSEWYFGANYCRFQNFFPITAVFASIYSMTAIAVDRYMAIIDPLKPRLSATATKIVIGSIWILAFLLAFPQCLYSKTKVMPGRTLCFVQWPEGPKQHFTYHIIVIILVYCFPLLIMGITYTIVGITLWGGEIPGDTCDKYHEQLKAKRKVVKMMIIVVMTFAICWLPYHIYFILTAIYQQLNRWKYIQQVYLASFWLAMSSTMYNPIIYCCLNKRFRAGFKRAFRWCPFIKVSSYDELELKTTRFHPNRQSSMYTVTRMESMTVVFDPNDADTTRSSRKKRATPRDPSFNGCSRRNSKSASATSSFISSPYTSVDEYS
Method: as §1, §2, §3

T1 sequence (P25103 whole entry): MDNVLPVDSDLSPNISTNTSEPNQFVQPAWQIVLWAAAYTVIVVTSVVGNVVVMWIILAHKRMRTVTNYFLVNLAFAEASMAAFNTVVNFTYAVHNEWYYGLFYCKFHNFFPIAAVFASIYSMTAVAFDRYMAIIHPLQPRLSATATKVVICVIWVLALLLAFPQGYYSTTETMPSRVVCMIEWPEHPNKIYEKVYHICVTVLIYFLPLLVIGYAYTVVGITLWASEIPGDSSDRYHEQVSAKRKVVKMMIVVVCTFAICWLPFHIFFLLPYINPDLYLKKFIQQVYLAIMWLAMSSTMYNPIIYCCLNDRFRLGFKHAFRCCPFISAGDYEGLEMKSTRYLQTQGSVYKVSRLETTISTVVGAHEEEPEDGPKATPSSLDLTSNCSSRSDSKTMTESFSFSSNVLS

Structure (SMILES) | IC50 [1] | IC50 [2] | IC50 [3]
Cn1cccc1CN1CCC(N2CCN(C3CCN(C(=O)c4cc(C(F)(F)F)cc(C(F)(F)F)c4)C(Cc4ccccc4)C3)CC2)CC1 (centres unmarked) [Compound 9] | 1.26 nM | 631 nM | 501 nM
Cc1cc(C)cc(C(=O)N2CCC(N3CCN(C4CCN(C(=O)c5cc(C(F)(F)F)cc(C(F)(F)F)c5)C(Cc5ccccc5)C4)CC3)CC2Cc2ccccc2)c1 (single isomer, unassigned) [Compound 11] | 39.8 nM | 631 nM | 251 nM
NC(Cc1ccc(O)cc1)C(=O)N1CCC(N2CCN(C3CCN(C(=O)c4cc(C(F)(F)F)cc(C(F)(F)F)c4)C(Cc4ccccc4)C3)CC2)CC1 (centres unmarked) [Compound 13] | 1.26 nM | 631 nM | 1000 nM
O=C(c1ccccc1O)N1CCC(N2CCN([C@H]3CCN(C(=O)c4cc(C(F)(F)F)cc(C(F)(F)F)c4)[C@H](Cc4ccccc4)C3)CC2)CC1 [Compound 36] | 1 nM | 794 nM | 794 nM
O=C(c1cc(F)cc(F)c1)N1CCC(N2CCN([C@H]3CCN(C(=O)c4cc(C(F)(F)F)cc(C(F)(F)F)c4)[C@H](Cc4ccccc4)C3)CC2)CC1 [Compound 51] | 1.26 nM | 631 nM | 398 nM
O=C(c1cc(C(F)(F)F)cc(C(F)(F)F)c1)N1CCC(N2CCN(C3CCNCC3)CC2)CC1Cc1ccccc1 (centres unmarked) [Compound 2] | 2.51 nM | 1580 nM | 6310 nM
Cc1cccc(C(=O)N2CCC(N3CCN([C@H]4CCN(C(=O)c5cc(C(F)(F)F)cc(C(F)(F)F)c5)[C@H](Cc5ccccc5)C4)CC3)CC2)c1 [Compound 37] | 3.98 nM | 501 nM | 251 nM
Cc1cccc(C)c1NC(=O)CN1CCC(N2CCN([C@H]3CCN(C(=O)c4cc(C(F)(F)F)cc(C(F)(F)F)c4)[C@H](Cc4ccccc4)C3)CC2)CC1 [Compound 97] | 0.316 nM | 501 nM | 398 nM
N#Cc1cccc(C(=O)N2CCC(N3CCN([C@H]4CCN(C(=O)c5cc(C(F)(F)F)cc(C(F)(F)F)c5)[C@H](Cc5ccccc5)C4)CC3)CC2)c1 [Compound 39] | 0.794 nM | 1000 nM | 1000 nM
Cc1oncc1C(=O)N1CCC(N2CCN(C3CCN(C(=O)c4cc(C(F)(F)F)cc(C(F)(F)F)c4)C(Cc4ccccc4)C3)CC2)CC1 (centres unmarked) [Compound 4] | 1.58 nM | 6310 nM | 200 nM
COc1ccc(C)cc1S(=O)(=O)N1CCC(N2CCN(C3CCN(C(=O)c4cc(C(F)(F)F)cc(C(F)(F)F)c4)C(Cc4ccccc4)C3)CC2)CC1 (centres unmarked) [Compound 119] | 25.1 nM | 1000 nM | 1000 nM
O=C(c1cccc(Cl)c1)N1CCC(N2CCN([C@H]3CCN(C(=O)c4cc(C(F)(F)F)cc(C(F)(F)F)c4)[C@H](Cc4ccccc4)C3)CC2)CC1 [Compound 32] | 1.58 nM | 631 nM | 158 nM
Cc1cc(C)cc(CN2CCC(N3CCN([C@H]4CCN(C(=O)c5cc(C(F)(F)F)cc(C(F)(F)F)c5)[C@H](Cc5ccccc5)C4)CC3)CC2)c1 [Compound 22] | 0.398 nM | 631 nM | 316 nM
O=C(c1ccsc1)N1CCC(N2CCN(C3CCN(C(=O)c4cc(C(F)(F)F)cc(C(F)(F)F)c4)C(Cc4ccccc4)C3)CC2)CC1 (centres unmarked) [Compound 5] | 0.1 nM | 794 nM | 501 nM
Cc1cc(C)cc(C(=O)N2CCC(N3CCN(C4CCN(C(=O)c5cc(C(F)(F)F)cc(C(F)(F)F)c5)C(Cc5ccccc5)C4)CC3)CC2Cc2ccccc2)c1 (single isomer, unassigned) [Compound 10] | 50.1 nM | 398 nM | 631 nM
O=C(c1cc(C(F)(F)F)cc(C(F)(F)F)c1)N1CCC(N2CCN(C3CCN(Cc4cc(C(F)(F)F)cc(C(F)(F)F)c4)CC3)CC2)CC1Cc1ccccc1 (centres unmarked) [Compound 26] | 39.8 nM | 1000 nM | 1000 nM
O=C(c1cc(C(F)(F)F)cc(C(F)(F)F)c1)N1CCC(N2CCN(C3CCN(C(=O)n4ccnc4)CC3)CC2)CC1Cc1ccccc1 (centres unmarked) [Compound 12] | 0.794 nM | 1000 nM | 794 nM

More lines, now with the values ahead:

IC50 [1] | IC50 [2] | IC50 [3] | Structure (SMILES)
1 nM | 1000 nM | 501 nM | COc1cc(CC(=O)N2CCC(N3CCN([C@H]4CCN(C(=O)c5cc(C(F)(F)F)cc(C(F)(F)F)c5)[C@H](Cc5ccccc5)C4)CC3)CC2)cc(OC)c1OC [Compound 106]
0.631 nM | 1580 nM | 1580 nM | COCC(=O)N1CCC(N2CCN([C@H]3CCN(C(=O)c4cc(C(F)(F)F)cc(C(F)(F)F)c4)[C@H](Cc4ccccc4)C3)CC2)CC1 [Compound 104]
3.98 nM | 631 nM | 251 nM | COc1cc(C(=O)N2CCC(N3CCN([C@H]4CCN(C(=O)c5cc(C(F)(F)F)cc(C(F)(F)F)c5)[C@H](Cc5ccccc5)C4)CC3)CC2)cc(OC)c1OC [Compound 65]
6.31 nM | 316 nM | 398 nM | O=C(c1ccccn1)N1CCC(N2CCN([C@H]3CCN(C(=O)c4cc(C(F)(F)F)cc(C(F)(F)F)c4)[C@H](Cc4ccccc4)C3)CC2)CC1 [Compound 79]
1.58 nM | 794 nM | 316 nM | Cc1nnsc1C(=O)N1CCC(N2CCN([C@@H]3CCN(C(=O)c4cc(C(F)(F)F)cc(C(F)(F)F)c4)[C@H](Cc4ccccc4)C3)CC2)CC1 [Compound 139]
0.631 nM | 398 nM | 251 nM | O=C(c1cc(F)c(F)cc1F)N1CCC(N2CCN([C@H]3CCN(C(=O)c4cc(C(F)(F)F)cc(C(F)(F)F)c4)[C@H](Cc4ccccc4)C3)CC2)CC1 [Compound 62]
 | 1260 nM | 631 nM | O=C(c1snnc1CO)N1CCC(N2CCN(C3CCN(C(=O)c4cc(C(F)(F)F)cc(C(F)(F)F)c4)C(Cc4ccccc4)C3)CC2)CC1 (centres unmarked) [Compound 144]
1 nM | 501 nM | 200 nM | Cc1ccc(O)c(C(=O)N2CCC(N3CCN([C@H]4CCN(C(=O)c5cc(C(F)(F)F)cc(C(F)(F)F)c5)[C@H](Cc5ccccc5)C4)CC3)CC2)c1 [Compound 56]
7.94 nM | 3980 nM | 3980 nM | Cc1nnsc1C(=O)N1CCC(N2CCN([C@@H]3CCN(C(=O)c4cc(C(F)(F)F)cc(C(F)(F)F)c4)[C@@H](Cc4ccccc4)C3)CC2)CC1 [Compound 141]
1 nM | 398 nM | 398 nM | O=C(C(c1ccccc1)N1CCCC1)N1CCC(N2CCN(C3CCN(C(=O)c4cc(C(F)(F)F)cc(C(F)(F)F)c4)C(Cc4ccccc4)C3)CC2)CC1 (centres unmarked) [Compound 113]
2.51 nM | 631 nM | 631 nM | CC(C)(C)OC(=O)N1CCCCC1C(=O)N1CCC(N2CCN([C@H]3CCN(C(=O)c4cc(C(F)(F)F)cc(C(F)(F)F)c4)[C@H](Cc4ccccc4)C3)CC2)CC1 (some centres unmarked) [Compound 89]
2.51 nM | 794 nM | 158 nM | O=C(C(c1ccccc1)N1CCOCC1)N1CCC(N2CCN([C@H]3CCN(C(=O)c4cc(C(F)(F)F)cc(C(F)(F)F)c4)[C@H](Cc4ccccc4)C3)CC2)CC1 (some centres unmarked) [Compound 116]
31.6 nM | 316 nM | 126 nM | CC(C)(C)OC(=O)N1Cc2ccccc2C[C@H]1C(=O)N1CCC(N2CCN([C@H]3CCN(C(=O)c4cc(C(F)(F)F)cc(C(F)(F)F)c4)[C@H](Cc4ccccc4)C3)CC2)CC1 [Compound 90]
